Assay results from US11180462B2, “Microbiocidal oxadiazole derivatives” (SYNGENTA PARTICIPATIONS AG, priority 2015, dated 2021).

Columns and labels:
[1] = tested on: Puccinia recondita f. Sp. Tritici; assay: Fungicidal activity against Puccinia recondita f. sp. tritici / wheat / leaf disc curative (brown rust); type: in vivo; conditions: foliar, 24 h, 200 ppm in the applied formulation, wheat leaf segments, curative (applied 1 day after inoculation), compared to untreated control leaf disks, read-out: disease control
Method in brief: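 Scoring is percent disease control relative to untreated segments, made 6 to 8 days after treatment. Wheat (cv. Kanzler) leaf segments received the formulated, water-diluted compound one day post-inoculation with spores, having been kept dark at 19° C and 75% RH, then incubated under 12 h light/12 h dark at the same temperature and humidity.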

[2] = tested on: Phakopsora Pachyrhizi; assay: Fungicidal activity against Phakopsora pachyrhizi / soybean / leaf disc preventative (Asian soybean rust); type: in vivo; conditions: foliar, 200 ppm in the applied formulation, soybean leaf disks, compared to untreated control leaf disks, read-out: disease control
Method in brief: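 Scored 12 to 14 days post-application as percent control relative to untreated check discs, rust spores were sprayed under the disc one day after compound treatment. Incubation: 20°C, 75% rh, first 24–36 h in darkness, then 12 h daily light; discs kept on water agar.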

[3] = tested on: Puccinia recondita f. Sp. Tritici; assay: Fungicidal activity against Puccinia recondita f. sp. tritici / wheat / leaf disc preventative (brown rust); type: in vivo; conditions: foliar, 200 ppm in the applied formulation, wheat leaf segments, preventative, compared to untreated control leaf disks, read-out: disease control
Method in brief: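 Percent disease control relative to untreated check segments is scored once disease develops, 7 to 9 days after application. Wheat cv. Kanzler segments receive compound spray (200 ppm in formulation) one day before spore inoculation, then sit at 19° C. and 75% rh under 12 h light/12 h dark.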

[4] = tested on: Glomerella lagenarium (Colletotrichum lagenarium); assay: Fungicidal activity against Glomerella lagenarium (Colletotrichum lagenarium) liquid culture / cucumber / preventative (anthracnose); type: cell-based; conditions: Colletotrichum orbiculare; 20 ppm in the applied formulation; liquid culture (PDB), growth inhibition measured photometrically after 3 to 4 days; compared to untreated control; read-out: disease control
Method in brief: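 Percent activity against the untreated check was derived from photometric growth measurements made 2 to 7 days after conidia in potato dextrose broth were combined with compound at 20 ppm. Cultures were kept dark at 24 °C and 96% humidity.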

CCON(Cc1ccc(-c2noc(C(F)(F)F)n2)cc1)C(=O)C1CC1 [Compound 1.564, N-ethoxy-N-[[4-[5-(trifluoromethyl)-1,2,4-oxadiazol-3-yl]phenyl]methyl]-cyclopropane-carboxamide]
≥ 80%: pest or weed control at 200 ppm [1] | pest or weed control at 200 ppm [2] | pest or weed control at 200 ppm [3] | inhibition of growth at 20 ppm [4]

C=CCN(Cc1ccc(-c2noc(C(F)(F)F)n2)cc1)C(=O)C1CCCO1 (centres unmarked) [Compound 1.489, N-allyl-N-[[4-[5-(trifluoromethyl)-1,2,4-oxadiazol-3-yl]phenyl]methyl]-tetrahydrofuran-2-carboxamide]
≥ 80%: pest or weed control at 200 ppm [1] | pest or weed control at 200 ppm [2] | pest or weed control at 200 ppm [3] | inhibition of growth at 20 ppm [4]

C#CCN(Cc1ccc(-c2noc(C(F)(F)F)n2)cc1)C(=O)C1(C)COC1 [Compound 1.192, 3-methyl-N-prop-2-ynyl-N-[[4-[5-(trifluoromethyl)-1,2,4-oxadiazol-3-yl]phenyl]methyl]-oxetane-3-carboxamide]
≥ 80%: pest or weed control at 200 ppm [1] | pest or weed control at 200 ppm [2] | pest or weed control at 200 ppm [3] | inhibition of growth at 20 ppm [4]

CC(C)C(=O)N(Cc1ccc(-c2noc(C(F)(F)F)n2)cc1)CC1CC1 [Compound 1.206, N-(cyclopropylmethyl)-2-methyl-N-[[4-[5-(trifluoromethyl)-1,2,4-oxadiazol-3-yl]phenyl]methyl]-propanamide]
≥ 80%: pest or weed control at 200 ppm [1] | pest or weed control at 200 ppm [2] | pest or weed control at 200 ppm [3] | inhibition of growth at 20 ppm [4]

C=CCN(Cc1ccc(-c2noc(C(F)(F)F)n2)cc1)C(=O)C(C)CC (centres unmarked) [Compound 1.486, N-allyl-2-methyl-N-[[4-[5-(trifluoromethyl)-1,2,4-oxadiazol-3-yl]phenyl]methyl]-butanamide]
≥ 80%: pest or weed control at 200 ppm [1] | pest or weed control at 200 ppm [2] | pest or weed control at 200 ppm [3] | inhibition of growth at 20 ppm [4]

C=CCN(Cc1ccc(-c2noc(C(F)(F)F)n2)cc1)C(=O)C1CCC1 [Compound 1.478, N-allyl-N-[[4-[5-(trifluoromethyl)-1,2,4-oxadiazol-3-yl]phenyl]methyl]-cyclobutane-carboxamide]
≥ 80%: pest or weed control at 200 ppm [1] | pest or weed control at 200 ppm [2] | pest or weed control at 200 ppm [3] | inhibition of growth at 20 ppm [4]

CC(=O)ON(Cc1ccc(-c2noc(C(F)(F)F)n2)cc1)C(C)=O [Compound 1.776, (acetyl-[[4-[5-(trifluoromethyl)-1,2,4-oxadiazol-3-yl]phenyl]methyl]-amino] acetate]
≥ 80%: pest or weed control at 200 ppm [1] | pest or weed control at 200 ppm [2] | pest or weed control at 200 ppm [3] | inhibition of growth at 20 ppm [4]

COCCC(=O)N(Cc1ccc(-c2noc(C(F)(F)F)n2)cc1)C1COC1 [Compound 1.741, 3-methoxy-N-(oxetan-3-yl)-N-[[4-[5-(trifluoromethyl)-1,2,4-oxadiazol-3-yl]phenyl]methyl]-propanamide]
≥ 80%: pest or weed control at 200 ppm [1] | pest or weed control at 200 ppm [2] | pest or weed control at 200 ppm [3] | inhibition of growth at 20 ppm [4]

COCCCC(=O)N(CCOC)Cc1ccc(-c2noc(C(F)(F)F)n2)cc1 [Compound 1.365, 4-methoxy-N-(2-methoxyethyl)-N-[[4-[5-(trifluoromethyl)-1,2,4-oxadiazol-3-yl]phenyl]methyl]-butanamide]
≥ 80%: pest or weed control at 200 ppm [1] | pest or weed control at 200 ppm [2] | pest or weed control at 200 ppm [3] | inhibition of growth at 20 ppm [4]

CON(Cc1ccc(-c2noc(C(F)(F)F)n2)cc1)C(=O)NC1CCC1 [Compound 3.16, 3-cyclobutyl-1-methoxy-1-[[4-[5-(trifluoromethyl)-1,2,4-oxadiazol-3-yl]phenyl]methyl]urea]
≥ 80%: pest or weed control at 200 ppm [1] | pest or weed control at 200 ppm [2] | pest or weed control at 200 ppm [3] | inhibition of growth at 20 ppm [4]

CCC(=O)N(Cc1ccc(-c2noc(C(F)(F)F)n2)cc1)CC1CCCO1 (centres unmarked) [Compound 1.432, N-(tetrahydrofuran-2-ylmethyl)-N-[[4-[5-(trifluoromethyl)-1,2,4-oxadiazol-3-yl]phenyl]methyl]-propanamide]
≥ 80%: pest or weed control at 200 ppm [1] | pest or weed control at 200 ppm [2] | pest or weed control at 200 ppm [3] | inhibition of growth at 20 ppm [4]

C=C(C)C(=O)N(Cc1ccc(-c2noc(C(F)(F)F)n2)cc1)C1CC1 [Compound 1.122, N-cyclopropyl-2-methyl-N-[[4-[5-(trifluoromethyl)-1,2,4-oxadiazol-3-yl]phenyl]methyl]prop-2-enamide]
≥ 80%: pest or weed control at 200 ppm [1] | pest or weed control at 200 ppm [2] | pest or weed control at 200 ppm [3] | inhibition of growth at 20 ppm [4]

CON(Cc1c(F)cc(-c2noc(C(F)(F)F)n2)cc1F)C(=O)C1CC1 [Compound 1.596, N-[[2,6-difluoro-4-[5-(trifluoromethyl)-1,2,4-oxadiazol-3-yl]phenyl]methyl]-N-methoxy-cyclopropane-carboxamide]
≥ 80%: pest or weed control at 200 ppm [1] | pest or weed control at 200 ppm [2] | pest or weed control at 200 ppm [3] | inhibition of growth at 20 ppm [4]

C#CCN(Cc1ccc(-c2noc(C(F)(F)F)n2)cc1)C(=O)C(C)(C)CCl [Compound 1.176, 3-chloro-2,2-dimethyl-N-prop-2-ynyl-N-[[4-[5-(trifluoromethyl)-1,2,4-oxadiazol-3-yl]phenyl]methyl]-propanamide]
≥ 80%: pest or weed control at 200 ppm [1] | pest or weed control at 200 ppm [2] | pest or weed control at 200 ppm [3] | inhibition of growth at 20 ppm [4]

C=CCN(Cc1ccc(-c2noc(C(F)(F)F)n2)cc1)C(=O)CCC [Compound 1.485, N-allyl-N-[[4-[5-(trifluoromethyl)-1,2,4-oxadiazol-3-yl]phenyl]methyl]-butanamide]
≥ 80%: pest or weed control at 200 ppm [1] | pest or weed control at 200 ppm [2] | pest or weed control at 200 ppm [3] | inhibition of growth at 20 ppm [4]

COCCCC(=O)N(O)Cc1ccc(-c2noc(C(F)(F)F)n2)cc1 [Compound 1.769, N-hydroxy-4-methoxy-N-[[4-[5-(trifluoromethyl)-1,2,4-oxadiazol-3-yl]phenyl]methyl]-butanamide]
≥ 80%: pest or weed control at 200 ppm [1] | pest or weed control at 200 ppm [2] | pest or weed control at 200 ppm [3] | inhibition of growth at 20 ppm [4]

CCON(Cc1ccc(-c2noc(C(F)(F)F)n2)cc1)C(=O)N(C)OC [Compound 3.7, 1-ethoxy-3-methoxy-3-methyl-1-[[4-[5-(trifluoromethyl)-1,2,4-oxadiazol-3-yl]phenyl]methyl]urea]
≥ 80%: pest or weed control at 200 ppm [1] | pest or weed control at 200 ppm [2] | pest or weed control at 200 ppm [3] | inhibition of growth at 20 ppm [4]

COCCN(Cc1ccc(-c2noc(C(F)(F)F)n2)cc1)C(=O)C(C)C [Compound 1.325, N-(2-methoxyethyl)-2-methyl-N-[[4-[5-(trifluoromethyl)-1,2,4-oxadiazol-3-yl]phenyl]methyl]-propanamide]
≥ 80%: pest or weed control at 200 ppm [1] | pest or weed control at 200 ppm [2] | pest or weed control at 200 ppm [3] | inhibition of growth at 20 ppm [4]

COCCCC(=O)N(Cc1ccc(-c2noc(C(F)(F)F)n2)cc1)C1CC1 [Compound 1.136, N-cyclopropyl-4-methoxy-N-[[4-[5-(trifluoromethyl)-1,2,4-oxadiazol-3-yl]phenyl]methyl]-butanamide]
≥ 80%: pest or weed control at 200 ppm [1] | pest or weed control at 200 ppm [2] | pest or weed control at 200 ppm [3] | inhibition of growth at 20 ppm [4]

COCCN(Cc1ccc(-c2noc(C(F)(F)F)n2)cc1)C(=O)C1OCCO1 [Compound 1.360, N-(2-methoxyethyl)-N-[[4-[5-(trifluoromethyl)-1,2,4-oxadiazol-3-yl]phenyl]methyl]-1,3-dioxolane-2-carboxamide]
≥ 80%: pest or weed control at 200 ppm [1] | pest or weed control at 200 ppm [2] | pest or weed control at 200 ppm [3] | inhibition of growth at 20 ppm [4]
